According to publication PMC10824666 (Nature Cancer, 2023):
Read-outs that look alike come from different tables or passages of the source. One block for each compound: values may come before it.

Columns and labels:
Test in all cases: biochemical
Parameters in all cases: Eurofins DiscoverX kinase panel, competitive binding assay at 1 uM, percent of DMSO control
Settings in all cases: competitive binding, percent of DMSO control
EGFR = EGFR (Homo sapiens, UniProt P00533)
In short: (§1)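 Single-point profiling at 1 µM compound in a competition-binding format against 96 kinases, read out as POC relative to control; n = 1.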

GRK1 = target: T1, GRK1 (Homo sapiens, UniProt Q15835)
T1 sequence (Q15835 1-563): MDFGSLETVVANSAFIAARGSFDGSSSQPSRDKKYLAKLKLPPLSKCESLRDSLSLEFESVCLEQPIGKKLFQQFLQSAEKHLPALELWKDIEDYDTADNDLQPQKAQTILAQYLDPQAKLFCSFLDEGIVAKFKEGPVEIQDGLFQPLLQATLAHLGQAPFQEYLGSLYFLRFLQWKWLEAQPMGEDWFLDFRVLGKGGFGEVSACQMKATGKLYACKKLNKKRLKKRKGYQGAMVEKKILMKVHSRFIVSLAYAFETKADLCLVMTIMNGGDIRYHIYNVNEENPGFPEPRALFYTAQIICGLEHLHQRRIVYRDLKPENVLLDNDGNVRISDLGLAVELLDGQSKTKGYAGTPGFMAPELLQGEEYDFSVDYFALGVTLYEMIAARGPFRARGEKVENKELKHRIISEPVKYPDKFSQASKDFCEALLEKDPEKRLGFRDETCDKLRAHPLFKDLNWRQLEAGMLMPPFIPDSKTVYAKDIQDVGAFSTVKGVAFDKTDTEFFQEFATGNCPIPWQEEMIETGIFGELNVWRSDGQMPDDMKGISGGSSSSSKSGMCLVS
In short: as §1

IGF-1R = target: T2, IGF-1R (Homo sapiens, UniProt P08069)
T2 construct: gene IGF1R
In short: as §1

GSK3B = GSK3B (Homo sapiens, UniProt P49841)
In short: as §1

MAP4K4 = MAP4K4 (Homo sapiens, UniProt O95819)
In short: as §1

bRAF = bRAF (Homo sapiens, UniProt P15056)
In short: as §1

JAK2 = JAK2 (Homo sapiens, UniProt O60674)
In short: as §1

CDK2 = CDK2 (Homo sapiens, UniProt P24941)
In short: as §1

Plk 1 = target: T3, Plk 1 (Homo sapiens, UniProt P53350)
T3 construct: gene PLK1
In short: as §1

OXSR1 = OXSR1 (Homo sapiens, UniProt O95747)
In short: as §1

[1] = read-out: Kinome Profiling performed by Eurofins DiscoverX / AM-1882, 1.0 µM / POC
[2] = read-out: Kinome Profiling performed by Eurofins DiscoverX / AM-5308, 1.0 µM / POC
[3] = read-out: Kinome Profiling performed by Eurofins DiscoverX / AM-0277, 1.0 µM / POC

T3 sequence (P53350 whole entry): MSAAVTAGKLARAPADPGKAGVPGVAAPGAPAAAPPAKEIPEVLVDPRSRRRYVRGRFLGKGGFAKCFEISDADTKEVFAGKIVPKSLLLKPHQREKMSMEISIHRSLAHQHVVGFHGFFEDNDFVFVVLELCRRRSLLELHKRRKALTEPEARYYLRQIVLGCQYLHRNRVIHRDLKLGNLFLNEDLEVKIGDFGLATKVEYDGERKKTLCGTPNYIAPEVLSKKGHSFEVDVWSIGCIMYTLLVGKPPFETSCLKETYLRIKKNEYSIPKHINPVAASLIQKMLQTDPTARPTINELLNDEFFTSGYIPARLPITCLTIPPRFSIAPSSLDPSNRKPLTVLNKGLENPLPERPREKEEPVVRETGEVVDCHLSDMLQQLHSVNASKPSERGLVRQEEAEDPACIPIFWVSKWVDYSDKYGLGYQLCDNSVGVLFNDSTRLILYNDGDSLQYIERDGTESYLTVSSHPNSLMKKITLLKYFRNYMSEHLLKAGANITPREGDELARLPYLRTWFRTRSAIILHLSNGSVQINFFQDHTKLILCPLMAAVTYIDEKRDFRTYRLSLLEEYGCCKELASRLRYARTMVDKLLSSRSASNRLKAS
MAP4K4, sequence (O95819 whole entry): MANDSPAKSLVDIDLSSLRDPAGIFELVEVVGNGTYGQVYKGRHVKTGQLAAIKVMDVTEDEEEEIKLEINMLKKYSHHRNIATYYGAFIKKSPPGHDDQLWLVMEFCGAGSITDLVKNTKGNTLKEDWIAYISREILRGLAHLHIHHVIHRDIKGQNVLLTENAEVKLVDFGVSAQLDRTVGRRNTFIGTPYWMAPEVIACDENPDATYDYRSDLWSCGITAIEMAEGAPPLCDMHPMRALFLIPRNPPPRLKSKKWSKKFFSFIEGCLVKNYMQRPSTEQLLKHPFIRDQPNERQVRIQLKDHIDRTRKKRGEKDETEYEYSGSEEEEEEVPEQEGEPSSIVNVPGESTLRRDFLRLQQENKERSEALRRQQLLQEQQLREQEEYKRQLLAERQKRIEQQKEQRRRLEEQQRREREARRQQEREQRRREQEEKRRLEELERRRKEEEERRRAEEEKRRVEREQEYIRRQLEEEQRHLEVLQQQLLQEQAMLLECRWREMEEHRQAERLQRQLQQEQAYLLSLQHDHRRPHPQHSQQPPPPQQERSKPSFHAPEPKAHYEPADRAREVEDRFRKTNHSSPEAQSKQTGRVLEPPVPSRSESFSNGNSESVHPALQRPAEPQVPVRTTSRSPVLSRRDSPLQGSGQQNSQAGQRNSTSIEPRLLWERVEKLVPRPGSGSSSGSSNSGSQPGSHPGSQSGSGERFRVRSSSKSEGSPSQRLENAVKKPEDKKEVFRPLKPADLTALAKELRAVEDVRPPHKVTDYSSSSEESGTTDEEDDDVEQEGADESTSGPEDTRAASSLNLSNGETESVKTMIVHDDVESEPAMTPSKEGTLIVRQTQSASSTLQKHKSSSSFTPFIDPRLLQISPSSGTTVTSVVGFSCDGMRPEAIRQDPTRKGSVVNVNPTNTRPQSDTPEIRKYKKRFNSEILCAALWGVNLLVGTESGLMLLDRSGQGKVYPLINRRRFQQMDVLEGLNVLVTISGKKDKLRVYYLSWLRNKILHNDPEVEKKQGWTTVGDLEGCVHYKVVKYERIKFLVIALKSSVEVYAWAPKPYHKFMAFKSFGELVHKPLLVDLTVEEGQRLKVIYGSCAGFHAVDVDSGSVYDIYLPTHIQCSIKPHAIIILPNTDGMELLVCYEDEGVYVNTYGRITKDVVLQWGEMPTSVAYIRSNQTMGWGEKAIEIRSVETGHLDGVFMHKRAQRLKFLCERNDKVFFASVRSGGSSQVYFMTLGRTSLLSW
JAK2, sequence (O60674 whole entry): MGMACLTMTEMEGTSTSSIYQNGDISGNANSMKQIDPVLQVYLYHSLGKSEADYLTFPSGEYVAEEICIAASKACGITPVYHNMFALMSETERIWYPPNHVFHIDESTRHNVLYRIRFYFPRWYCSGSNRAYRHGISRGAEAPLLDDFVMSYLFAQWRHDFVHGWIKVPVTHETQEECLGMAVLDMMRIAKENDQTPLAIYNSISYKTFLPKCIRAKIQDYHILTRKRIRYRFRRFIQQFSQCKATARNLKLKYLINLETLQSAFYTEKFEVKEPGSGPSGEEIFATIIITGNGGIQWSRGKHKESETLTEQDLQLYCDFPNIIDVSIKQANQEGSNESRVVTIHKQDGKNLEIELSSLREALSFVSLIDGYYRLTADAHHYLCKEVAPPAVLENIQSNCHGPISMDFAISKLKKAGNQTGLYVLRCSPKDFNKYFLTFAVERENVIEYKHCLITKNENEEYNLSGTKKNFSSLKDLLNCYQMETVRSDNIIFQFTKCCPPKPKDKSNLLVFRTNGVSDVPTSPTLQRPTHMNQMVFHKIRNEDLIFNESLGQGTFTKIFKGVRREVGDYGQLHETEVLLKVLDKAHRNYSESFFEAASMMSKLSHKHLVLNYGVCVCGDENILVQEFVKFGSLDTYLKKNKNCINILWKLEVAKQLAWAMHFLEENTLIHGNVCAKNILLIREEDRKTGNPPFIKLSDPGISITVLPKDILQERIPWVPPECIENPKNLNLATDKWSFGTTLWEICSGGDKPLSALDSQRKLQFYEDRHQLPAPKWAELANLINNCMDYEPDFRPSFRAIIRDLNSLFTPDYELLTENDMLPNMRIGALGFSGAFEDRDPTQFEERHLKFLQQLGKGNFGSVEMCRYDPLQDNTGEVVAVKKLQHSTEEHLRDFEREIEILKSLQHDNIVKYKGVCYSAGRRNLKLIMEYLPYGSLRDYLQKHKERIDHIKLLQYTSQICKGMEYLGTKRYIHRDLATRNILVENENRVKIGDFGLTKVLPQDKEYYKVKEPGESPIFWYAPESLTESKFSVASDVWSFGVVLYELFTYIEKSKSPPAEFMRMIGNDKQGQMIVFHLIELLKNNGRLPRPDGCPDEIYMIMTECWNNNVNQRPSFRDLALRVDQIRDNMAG
GSK3B, sequence (P49841 whole entry): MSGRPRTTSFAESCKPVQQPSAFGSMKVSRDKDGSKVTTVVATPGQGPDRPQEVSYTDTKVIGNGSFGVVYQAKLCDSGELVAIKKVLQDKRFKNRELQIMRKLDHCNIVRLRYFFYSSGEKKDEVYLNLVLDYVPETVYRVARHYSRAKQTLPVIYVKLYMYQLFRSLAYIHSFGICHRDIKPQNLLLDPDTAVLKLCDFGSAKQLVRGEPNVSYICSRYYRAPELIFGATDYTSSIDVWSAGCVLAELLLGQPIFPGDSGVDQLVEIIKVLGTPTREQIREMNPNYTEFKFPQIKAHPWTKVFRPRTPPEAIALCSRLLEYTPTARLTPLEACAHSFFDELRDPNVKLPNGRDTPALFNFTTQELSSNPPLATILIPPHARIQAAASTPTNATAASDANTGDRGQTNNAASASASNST
bRAF, sequence (P15056 whole entry): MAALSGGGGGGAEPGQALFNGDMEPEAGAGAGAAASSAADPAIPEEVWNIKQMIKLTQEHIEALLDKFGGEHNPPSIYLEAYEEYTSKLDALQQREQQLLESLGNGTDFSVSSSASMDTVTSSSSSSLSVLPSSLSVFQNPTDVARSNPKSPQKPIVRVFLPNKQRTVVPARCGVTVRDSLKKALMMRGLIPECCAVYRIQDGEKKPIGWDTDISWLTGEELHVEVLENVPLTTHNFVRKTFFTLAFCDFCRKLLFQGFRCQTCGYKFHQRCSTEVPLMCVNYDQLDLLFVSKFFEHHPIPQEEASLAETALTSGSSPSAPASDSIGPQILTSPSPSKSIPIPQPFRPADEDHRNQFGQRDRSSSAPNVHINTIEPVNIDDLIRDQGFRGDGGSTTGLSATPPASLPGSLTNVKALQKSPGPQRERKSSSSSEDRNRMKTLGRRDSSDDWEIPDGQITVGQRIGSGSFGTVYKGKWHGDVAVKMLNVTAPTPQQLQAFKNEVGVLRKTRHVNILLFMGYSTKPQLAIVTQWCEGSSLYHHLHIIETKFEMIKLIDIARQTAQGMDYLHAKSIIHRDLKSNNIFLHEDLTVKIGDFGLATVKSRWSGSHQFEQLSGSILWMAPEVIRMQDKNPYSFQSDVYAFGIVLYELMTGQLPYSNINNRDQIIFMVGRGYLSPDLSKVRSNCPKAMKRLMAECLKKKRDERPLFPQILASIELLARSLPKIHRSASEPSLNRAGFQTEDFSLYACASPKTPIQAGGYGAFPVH
OXSR1, sequence (O95747 whole entry): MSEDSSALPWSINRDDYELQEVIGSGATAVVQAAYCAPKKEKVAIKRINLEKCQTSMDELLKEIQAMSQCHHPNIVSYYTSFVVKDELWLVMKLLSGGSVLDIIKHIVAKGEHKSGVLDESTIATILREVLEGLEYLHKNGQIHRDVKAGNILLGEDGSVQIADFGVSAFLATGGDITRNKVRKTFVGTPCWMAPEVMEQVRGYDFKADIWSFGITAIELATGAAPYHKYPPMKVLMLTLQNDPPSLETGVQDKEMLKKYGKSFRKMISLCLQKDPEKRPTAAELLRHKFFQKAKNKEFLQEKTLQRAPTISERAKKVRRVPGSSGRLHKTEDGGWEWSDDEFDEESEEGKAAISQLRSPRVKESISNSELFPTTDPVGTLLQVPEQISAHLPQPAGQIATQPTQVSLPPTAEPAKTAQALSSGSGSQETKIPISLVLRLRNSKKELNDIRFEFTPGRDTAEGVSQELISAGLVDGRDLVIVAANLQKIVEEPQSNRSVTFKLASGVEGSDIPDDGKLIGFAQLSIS

remaining activity at 1 µM (EGFR; [1]): 100%
remaining activity at 1 µM (GRK1; [1]): 98.5%
remaining activity at 1 µM (IGF-1R; [1]): 83%
remaining activity at 1 µM (GSK3B; [1]): 100%
remaining activity at 1 µM (MAP4K4; [1]): 95%
remaining activity at 1 µM (bRAF; [1]): 94.5%
remaining activity at 1 µM (JAK2; [1]): 100%
remaining activity at 1 µM (CDK2; [1]): 100%
remaining activity at 1 µM (Plk 1; [1]): 100%
remaining activity at 1 µM (OXSR1; [1]): 92.5%
SMILES: CC(C)(C)NS(=O)(=O)c1cccc(NC(=O)c2ccc(S(=O)(=O)NC(C)(C)C)cc2N2CCC3(CC2)CC3)c1 [AM-1882]

remaining activity at 1 µM (EGFR; [2]): 83%
remaining activity at 1 µM (GRK1; [2]): 91%
remaining activity at 1 µM (IGF-1R; [2]): 86.5%
remaining activity at 1 µM (GSK3B; [2]): 100%
remaining activity at 1 µM (MAP4K4; [2]): 75%
remaining activity at 1 µM (bRAF; [2]): 92.5%
remaining activity at 1 µM (JAK2; [2]): 94.5%
remaining activity at 1 µM (CDK2; [2]): 94.5%
remaining activity at 1 µM (Plk 1; [2]): 95%
remaining activity at 1 µM (OXSR1; [2]): 82.5%
SMILES: C[C@@H]1CN(c2cccc(NC(=O)c3ccc(NS(=O)(=O)CCO)cc3N3CCC4(CC3)CC4)n2)CCO1 [AM-5308]

remaining activity at 1 µM (EGFR; [3]): 93%
remaining activity at 1 µM (GRK1; [3]): 81%
remaining activity at 1 µM (IGF-1R; [3]): 97%
remaining activity at 1 µM (GSK3B; [3]): 100%
remaining activity at 1 µM (MAP4K4; [3]): 100%
remaining activity at 1 µM (bRAF; [3]): 100%
remaining activity at 1 µM (JAK2; [3]): 100%
remaining activity at 1 µM (CDK2; [3]): 97%
remaining activity at 1 µM (Plk 1; [3]): 100%
remaining activity at 1 µM (OXSR1; [3]): 100%
SMILES: CC(C)(CO)Nc1ccc(C(=O)Nc2cccc(S(=O)(=O)C3CCCC3)c2)c(N2CCC3(CC2)CC3)n1 [AM-0277]
